Experiments:
[1] = tested on: Staphylococcus aureus; assay: Antimicrobial activity against Staphylococcus aureus 8325 incubated for 12 hrs by agar diffusion method; type: functional
[2] = tested on: Bacillus subtilis; assay: Antimicrobial activity against Bacillus subtilis incubated for 12 hrs by agar diffusion method; type: functional
[3] = tested on: Pseudomonas aeruginosa; assay: Antimicrobial activity against Pseudomonas aeruginosa PAO1 incubated for 12 hrs by agar diffusion method; type: functional
[4] = tested on: Candida albicans; assay: Antimicrobial activity against Candida albicans IBT 656 incubated for 24 hrs by broth dilution method; type: functional
[5] = tested on: LNCaP; assay: Cytotoxicity against human LNCaP cells assessed as inhibition of cell growth incubated for 72 hrs by CellTox Green cytotoxicity assay; type: functional, cell-based
[6] = tested on: LNCaP C4-2B; assay: Cytotoxicity against human LNCaP C4-2B cells assessed as inhibition of cell growth incubated for 72 hrs by CellTox Green cytotoxicity assay; type: functional, cell-based
[7] = tested on: LNCaP; assay: Cytotoxicity against drug resistant human LNCaP cells assessed as inhibition of cell growth incubated for 72 hrs by CellTox Green cytotoxicity assay; type: functional, cell-based
[8] = tested on: LNCaP C4-2B; assay: Cytotoxicity against drug resistant human LNCaP C4-2B cells assessed as inhibition of cell growth incubated for 72 hrs by CellTox Green cytotoxicity assay; type: functional, cell-based

| Structure (SMILES) | MIC [1] | MIC [2] | MIC [3] | MIC [4] | IC50 [5] | IC50 [6] | IC50 [7] | IC50 [8] |
| --- | --- | --- | --- | --- | --- | --- | --- | --- |
| CCC/C=C\c1ccccc1/C=C/C(=O)N[C@H](Cc1ccc(O)cc1)C(=O)N(C)[C@@H](Cc1ccc(OC)c(O)c1Cl)C(=O)N(C)[C@@H](Cc1ccccc1)C(=O)O | > 50 µg/mL | > 50 µg/mL | > 50 µg/mL | > 50 µg/mL | > 10 µM | > 10 µM | > 10 µM | > 10 µM |
| CCC/C=C\c1ccccc1/C=C/C(=O)N[C@H](Cc1ccc(O)cc1)C(=O)N(C)[C@@H](Cc1ccc(OC)c(O)c1)C(=O)N(C)[C@@H](Cc1ccccc1)C(=O)O | > 50 µg/mL | > 50 µg/mL | > 50 µg/mL | > 50 µg/mL | – | – | – | – |
| CCC/C=C\c1ccccc1/C=C/C(=O)N[C@H](Cc1ccc(O)cc1)C(=O)N(C)[C@@H](Cc1ccc(OC)c(O)c1Cl)C(=O)N(C)[C@@H](Cc1ccccc1)C(=O)OC[C@H]1NC(=O)CNC1=O | > 50 µg/mL | > 50 µg/mL | > 50 µg/mL | > 50 µg/mL | > 10 µM | > 10 µM | > 10 µM | > 10 µM |
| CCC/C=C\c1ccccc1/C=C/C(=O)N[C@H](Cc1ccc(O)cc1)C(=O)N(C)[C@@H](Cc1ccc(OC)c(O)c1)C(=O)N(C)[C@@H](Cc1ccccc1)C(=O)OC[C@H]1NC(=O)CNC1=O | > 50 µg/mL | > 50 µg/mL | > 50 µg/mL | > 50 µg/mL | > 10 µM | > 10 µM | > 10 µM | > 10 µM |
